Laboratory results as given in paper PMC11480993, “Combining Data-Driven and Structure-Based Approaches in Designing Dual PARP1-BRD4 Inhibitors for Breast Cancer Treatment” (Journal of Chemical Information and Modeling, 2024).
Where two headings read alike, the source gives them in different places.

Tests used:
PARP1 [1] = target: PARP1 (Homo sapiens, UniProt P09874); test: In vitro PARP1 enzymatic activity (ELISA, biotinylated NAD+, luminescence); assay type: biochemical
Method: The inhibition of the tested compounds on PARP1 enzymatic activity was determined by ELISA in 96-well plates. Each well was precoated with histone (20 μg/mL) diluted in 100 μL of PBS buffer (10 mM NaH2PO4, 100 mM Na2HPO4, 150 mM NaCl, pH 7.4) by incubation at 4 °C overnight. […] The reaction was initiated by the addition of 20 μL of PARP1 (50 ng/well) at 30 °C for 1 h. Then the reaction solution was added to 50 μL of streptavidin conjugated HRP. The assay was performed at 30 °C for an additional 30 min. Finally, 100 μL of solution (H2O2 and luminol in citrate buffer 0.1 M, pH 5.4) was added and luminescent signal was measured using a multiwell spectrophotometer (Molecular Devices SpectraMax M5 microplate reader).

BRD4 [2] = target: BRD4 (Homo sapiens, UniProt O60885); test: BRD TR-FRET assay, BRD4; assay type: binding
Method: The assay was performed by TR-FRET technology using a BRD and its corresponding ligand (BET). The TR-FRET signal from the assay is correlated with the amount of ligand binding to the bromodomain. All of the binding reactions were conducted at room temperature. The 20 μL reaction mixture in Assay Buffer contains either bromodomains, BET Ligand, and the indicated amount of inhibitor. For the negative control (blank), 5 μL of the assay buffer was added instead of the BET ligand. The reaction mixture was incubated for 120 min. After the incubation with the ligand, the TR-FRET signal was measured using a Tecan Infinite M1000 plate reader.

PARP1 [3] = system: PARP1; design: method as in PMID 34813314, PMID 35091172, PMID 33532187, PMID 35442700, PMID 24481311; settings: known dual PARP1-BRD4 inhibitors ref 15-19; cited from earlier work
BRD4 [4] = settings: cited from earlier work
MDA-MB-231 = system: MDA-MB-231; design: method as in PMID 34813314, PMID 35091172, PMID 33532187, PMID 35442700, PMID 24481311; settings: 3 days; breast cancer ref 15-19; cited from earlier work
MDA-MB-468 = system: MDA-MB-468; design: method as in PMID 34813314, PMID 35091172, PMID 33532187, PMID 35442700, PMID 24481311; settings: 3 days; breast cancer ref 15-19; cited from earlier work
MCF-7 cells = test: Cell viability (MTT), MCF-7; assay type: cell-based; settings: Homo sapiens, MCF7, 96 h; 4-day treatment, wild-type BRCA
Method: (§1) MDA-MB-231, MDA-MB-436, and MCF-7 cells were seeded into 96-well plates with the number of 5 × 10^3 in each cell and allowed to incubate for 24 h. Subsequently, various concentrations of the test compounds (ranging from 100 to 0.78 μM with twice gradient dilution) were introduced. After 4 days of incubation, MTT solution was applied, and the cells were incubated for an additional 4 h. Following the removal of the supernatant, the violet crystals were dissolved in 200 μL of DMSO, and the absorbance was measured at 570 nm.

MDA-MB-231 cells = test: Cell viability (MTT), MDA-MB-231; assay type: cell-based; settings: Homo sapiens, MDA-MB-231, 96 h; 4-day treatment, wild-type BRCA
Method: as §1

MDA-MB-436 cells = test: Cell viability (MTT), MDA-MB-436; assay type: cell-based; settings: Homo sapiens, MDA-MB-436, 96 h; 4-day treatment, BRCA mutant
Method: as §1

BRD4 [5] = test: Western blot, BRD4 expression in MCF-7 cells; assay type: cell-based; settings: MCF-7, 48 h treatment
Method: (§2) Following a 48 h treatment, cellular proteins were extracted using RIPA cell lysis buffer containing protease and phosphatase inhibitor cocktail. The protein concentration was assessed by using a BCA assay. Subsequently, equal amounts of these proteins were loaded onto an SDS-PAGE gel and transferred onto a PVDF membrane. The protein-loaded membrane was then blocked using a commercial blocking solution (Beyotime, China) and sequentially incubated with primary and secondary antibodies. Protein bands were visualized using an ECL chemiluminescence kit and quantified using ImageJ software.

PARP1 [6] = test: Western blot, PARP1 expression in MCF-7 cells; assay type: cell-based; settings: MCF-7, 48 h treatment
Method: as §2

[7] = Solubility observed during activity testing; assay type: physicochemical; settings: compared with HF2
Method: The inhibitory effects of both enzymes were measured for HF1 and HF2. […] The large discrepancy in BRD4 activities could be attributed to the nonplanar scaffold of HF1, which appears to fit more effectively into the hydrophobic environment formed by Val87, Phe83, and Ile146 (Figure 5B, right). […] Before proceeding further, we made the decision to examine PJ34, a potent and nonselective PARP1 inhibitor,[13] to assess its impact on BRD4 inhibition. […] Given the strong PARP1 activity and relatively low micromolar BRD4 activity of PJ34 relative to HF1 and HF2, we contemplated whether substituting PJ34’s scaffold with that of HF1 could synergistically enhance BRD4 affinity while maintaining strong PARP1 affinity.

SW1990 cell = system: SW1990 cell; design: method as in PMID 34813314, PMID 35091172, PMID 33532187, PMID 35442700, PMID 24481311; settings: 4 days; pancreatic cancer ref 15-19; cited from earlier work
CFPAC-1 cell = system: CFPAC-1 cell; design: method as in PMID 34813314, PMID 35091172, PMID 33532187, PMID 35442700, PMID 24481311; settings: 4 days; pancreatic cancer ref 15-19; cited from earlier work
Capan-1 cell = system: Capan-1 cell; design: method as in PMID 34813314, PMID 35091172, PMID 33532187, PMID 35442700, PMID 24481311; settings: 4 days; pancreatic cancer ref 15-19; cited from earlier work
[8] = known dual PARP1-BRD4 inhibitors ref 15-19

Sequence of PARP1 (Homo sapiens, UniProt P09874) (P09874 whole entry): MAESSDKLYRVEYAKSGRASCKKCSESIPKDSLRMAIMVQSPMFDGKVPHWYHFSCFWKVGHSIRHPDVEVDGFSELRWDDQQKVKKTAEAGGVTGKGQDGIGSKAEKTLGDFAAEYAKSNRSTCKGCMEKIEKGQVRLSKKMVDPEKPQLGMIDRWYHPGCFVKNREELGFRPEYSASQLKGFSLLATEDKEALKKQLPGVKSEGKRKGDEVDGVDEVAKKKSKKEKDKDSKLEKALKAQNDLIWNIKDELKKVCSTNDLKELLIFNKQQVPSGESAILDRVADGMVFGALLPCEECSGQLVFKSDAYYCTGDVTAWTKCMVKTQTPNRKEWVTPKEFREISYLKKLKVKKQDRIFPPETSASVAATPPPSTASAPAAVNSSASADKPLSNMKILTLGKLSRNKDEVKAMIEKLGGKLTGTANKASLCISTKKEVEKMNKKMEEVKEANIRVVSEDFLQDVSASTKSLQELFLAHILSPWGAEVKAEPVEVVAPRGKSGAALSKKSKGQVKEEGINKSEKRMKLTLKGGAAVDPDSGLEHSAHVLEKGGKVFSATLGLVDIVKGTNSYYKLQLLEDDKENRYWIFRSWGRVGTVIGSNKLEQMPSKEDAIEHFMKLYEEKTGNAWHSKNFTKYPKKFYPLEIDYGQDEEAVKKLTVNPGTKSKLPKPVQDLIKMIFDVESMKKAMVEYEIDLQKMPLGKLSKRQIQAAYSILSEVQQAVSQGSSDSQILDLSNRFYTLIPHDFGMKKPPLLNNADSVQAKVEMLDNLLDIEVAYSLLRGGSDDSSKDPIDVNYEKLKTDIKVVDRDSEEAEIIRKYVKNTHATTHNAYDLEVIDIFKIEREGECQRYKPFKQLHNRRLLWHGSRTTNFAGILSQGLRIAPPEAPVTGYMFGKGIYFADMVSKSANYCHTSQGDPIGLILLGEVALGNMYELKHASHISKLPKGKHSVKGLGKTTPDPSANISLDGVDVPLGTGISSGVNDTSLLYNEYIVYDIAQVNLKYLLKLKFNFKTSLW

Compound: Cc1cc(S(=O)(=O)Nc2ccc3[nH]c(=O)c4ccccc4c3c2)ccc1F [HF2]
- IC50 (PARP1 [1]): 339 ± 86 nM
- IC50 (BRD4 [2]): 32600 ± 6340 nM

Compound: COc1cc(OC)c2c(=O)[nH]c(-c3cccc(Cc4n[nH]c(=O)c5ccccc45)c3)nc2c1 [BP44]
- IC50 (PARP1 [3]): 197 nM
- IC50 (BRD4 [4]; [8]): 238 nM
- IC50 (MDA-MB-231): 6610 ± 580 nM
- IC50 (MDA-MB-468): 3010 ± 830 nM

Compound: O=C(c1cc(Cc2n[nH]c(=O)c3ccccc23)ccc1F)N1CCN(C(=O)C2CC2)CC1 [Olaparib, olaparib, reference compound]
- IC50 (MCF-7 cells): 27200 ± 3500 nM
- IC50 (MDA-MB-231 cells): 13900 ± 2600 nM
- IC50 (MDA-MB-436 cells): 2200 nM

Compound: CCc1cc2cc(NC(=O)CN(C)C)ccc2[nH]c1=O [HF5, 2-(dimethylamino)-N-(3-ethyl-2-oxo-1,2-dihydroquinolin-6-yl)acetamide]
- IC50 (PARP1 [1]): 736 nM
- IC50 (BRD4 [2]): 34300 ± 7900 nM
- IC50 (BRD4 [2]; value of the text): ~34300 nM

Compound: COc1cc(OC)c2c(=O)[nH]c(-c3cc(C)c(OCCO)c(C)c3)nc2c1 [RVX-208, apabetalone, reference compound]
- activity against PARP1 (PARP1 [1]; at 10 μM): no activity

Compound: COc1ccccc1S(=O)(=O)Nc1ccc2c(c1)CN(C)C(=O)N2 [PFI-1, reference compound]
- inhibition at 10 µM (PARP1 [1]; 10 μM, read-out: PARP1 inhibition rate): 10%
- IC50 (BRD4 [4]): 220 nM

Compound: CN(C)CC(=O)Nc1ccc2[nH]c(=O)c3c(c2c1)CCCC3 [HF3, 2-(dimethylamino)-N-(6-oxo-5,6,7,8,9,10-hexahydrophenanthridin-2-yl)acetamide]
- IC50 (PARP1 [1]): 16 nM
- IC50 (BRD4 [2]): 28800 ± 6990 nM
- IC50 (BRD4 [2]; value of the text): ~28000 nM

Compound: Cc1sc2c(c1C)C(c1ccc(Cl)cc1)=N[C@@H](CC(=O)OC(C)(C)C)c1nnc(C)n1-2 [JQ1, reference compound]
- IC50 (MCF-7 cells): 900 ± 100 nM
- IC50 (MDA-MB-231 cells): 1200 ± 400 nM
- IC50 (MDA-MB-436 cells): 4700 ± 1900 nM
- BRD4 expression (BRD4 [5]): significantly enhances its levels
- PARP1 expression (PARP1 [6]): significant increase

Compound: Cc1cc(S(=O)(=O)Nc2ccc3[nH]c(=O)c4c(c3c2)CCCC4)ccc1F [HF1, 4-fluoro-3-methyl-N-(6-oxo-5,6,7,8,9,10-hexahydrophenanthridin-2-yl)benzenesulfonamide]
- IC50 (PARP1 [1]): 94 nM
- IC50 (BRD4 [2]): 3560 ± 951 nM
- BRD4 potency relative to HF2 (BRD4 [2]; more potent than HF2): 10 times
- IC50 (BRD4 [2]; value of the text): 3500 nM
- IC50 (MCF-7 cells): 11400 nM
- IC50 (MDA-MB-231 cells): 31900 nM
- solubility during activity testing [7]: higher solubility

Compound: CN(C)CC(=O)Nc1ccc2[nH]c(=O)c3ccccc3c2c1 [PJ34, 2-(dimethylamino)-N-(6-oxo-5,6-dihydrophenanthridin-2-yl)acetamide, reference compound]
- IC50 (BRD4 [2]): 2070 ± 588 nM

Compound: CC[C@@H]1C(=O)N(C)c2cnc(N(C)c3ccc(-c4nc5c(C(N)=O)cccc5[nH]4)cc3OC)nc2N1C1CCCC1 [III-16]
- IC50 (PARP1 [3]): 13 nM
- IC50 (BRD4 [4]; [8]): 101 nM
- IC50 (SW1990 cell): 980 ± 130 nM

Compound: COc1cc(OC)c2c(=O)[nH]c(-c3ccc(OCCOc4ccccc4C(N)=O)cc3)nc2c1 [ADTL-BPI1901]
- IC50 (PARP1 [3]): 4600 nM
- IC50 (BRD4 [4]; [8]): 400 nM
- IC50 (MDA-MB-231): 15600 ± 1720 nM
- IC50 (MDA-MB-468): 6420 ± 1310 nM

Compound: Cc1noc(C)c1-c1ccc2c(c1)C(c1ccccc1)N(Cc1nc3c(C(N)=O)cccc3[nH]1)C(=O)N2C (stereo not shown) [III-7]
- IC50 (PARP1 [3]): 49 nM
- IC50 (BRD4 [4]; [8]): 202 nM
- IC50 (SW1990 cell): 1340 ± 160 nM
- IC50 (CFPAC-1 cell): 1310 ± 110 nM
- IC50 (Capan-1 cell): 1710 ± 210 nM
